Tests used:
Type in all cases: in vivo
[1] = system: Abutilon theophrasti (ABUTH); assay: Herbicidal post-emergence action; settings: 1280 g/ha; rated visually about 3 weeks after treatment vs untreated controls; 100% = plants have died, 0% = like control plants
Description: (§1) Seeds of mono- and dicotyledonous weed plants were placed in plastic pots in sandy loam soil (doubly sown with in each case one species of mono- or dicotyledonous weed plants per pot), covered with soil and cultivated in a greenhouse under controlled growth conditions. 2 to 3 weeks after sowing, the test plants were treated at the one-leaf stage. The compounds of the invention, formulated in the form of wettable powders (WP) or as emulsion concentrates (EC), were applied onto the green parts of the plants as aqueous suspension or emulsion with addition of 0.5% additive at a water application rate of 600 liters per hectare (converted). After the test plants had been kept in the greenhouse under optimum growth conditions for about 3 weeks, the activity of the preparations was rated visually in comparison to untreated controls. For example, 100% activity=the plants have died, 0% activity=like control plants. Tables B1 to B6 below show the effects of selected compounds of the general formula (I) according to Table 1 on various harmful plants and an application rate corresponding to 1280 g/ha, which were obtained by the experimental procedure mentioned above.

[2] = system: Echinochloa crus-galli (ECHCG); assay: Herbicidal post-emergence action; settings: 1280 g/ha; rated visually about 3 weeks after treatment vs untreated controls; 100% = plants have died, 0% = like control plants
Description: as §1

Poa annua (POAAN) [3] = assay: Herbicidal post-emergence action; settings: 1280 g/ha; rated visually about 3 weeks after treatment vs untreated controls; 100% = plants have died, 0% = like control plants
Description: as §1

Setaria viridis (SETVI) [4] = assay: Herbicidal post-emergence action; settings: 1280 g/ha; rated visually about 3 weeks after treatment vs untreated controls; 100% = plants have died, 0% = like control plants
Description: as §1

Stellaria media (STEME) [5] = assay: Herbicidal post-emergence action; settings: 1280 g/ha; rated visually about 3 weeks after treatment vs untreated controls; 100% = plants have died, 0% = like control plants
Description: as §1

[6] = system: Amaranthus retroflexus (AMARE); assay: Herbicidal post-emergence action; settings: 1280 g/ha; rated visually about 3 weeks after treatment vs untreated controls; 100% = plants have died, 0% = like control plants
Description: as §1

[7] = system: Matricaria inodora (MATIN); assay: Herbicidal pre-emergence action; settings: 1280 g/ha; scored visually after about 3 weeks vs untreated controls; 100% = plants have died, 0% = like control plants
Description: (§2) Seeds of mono- and dicotyledonous weed plants were placed in plastic pots in sandy loam soil (doubly sown with in each case one species of mono- or dicotyledonous weed plants per pot) and covered with soil. The compounds of the invention, formulated in the form of wettable powders (WP) or as emulsion concentrates (EC), were then applied onto the surface of the covering soil as aqueous suspension or emulsion with addition of 0.5% additive at a water application rate of 600 liters per hectare (converted). After the treatment, the pots were placed in a greenhouse and kept under good growth conditions for the test plants. After about 3 weeks, the effect of the preparations was scored visually in comparison with untreated controls as percentages. For example, 100% activity=the plants have died, 0% activity=like control plants. Tables C1 to C8 below show the effects of selected compounds of the general formula (I) according to Table 1 on various harmful plants and an application rate corresponding to 1280 g/ha, which were obtained by the experimental procedure mentioned above.

[8] = system: Abutilon theophrasti (ABUTH); assay: Herbicidal pre-emergence action; settings: 1280 g/ha; scored visually after about 3 weeks vs untreated controls; 100% = plants have died, 0% = like control plants
Description: as §2

[9] = system: Echinochloa crus-galli (ECHCG); assay: Herbicidal pre-emergence action; settings: 1280 g/ha; scored visually after about 3 weeks vs untreated controls; 100% = plants have died, 0% = like control plants
Description: as §2

Poa annua (POAAN) [10] = assay: Herbicidal pre-emergence action; settings: 1280 g/ha; scored visually after about 3 weeks vs untreated controls; 100% = plants have died, 0% = like control plants
Description: as §2

Lolium rigidum (LOLRI) = assay: Herbicidal pre-emergence action; settings: 1280 g/ha; scored visually after about 3 weeks vs untreated controls; 100% = plants have died, 0% = like control plants
Description: as §2

Setaria viridis (SETVI) [11] = assay: Herbicidal pre-emergence action; settings: 1280 g/ha; scored visually after about 3 weeks vs untreated controls; 100% = plants have died, 0% = like control plants
Description: as §2

Stellaria media (STEME) [12] = assay: Herbicidal pre-emergence action; settings: 1280 g/ha; scored visually after about 3 weeks vs untreated controls; 100% = plants have died, 0% = like control plants
Description: as §2

[13] = system: Amaranthus retroflexus (AMARE); assay: Herbicidal pre-emergence action; settings: 1280 g/ha; scored visually after about 3 weeks vs untreated controls; 100% = plants have died, 0% = like control plants
Description: as §2

Agrostis tenuis (AGSTE) = assay: Herbicidal early post-emergence action; settings: 1900 g/ha; scored visually 9 to 12 days after treatment vs untreated controls; 100% = plants have died, 0% = like control plants
Description: (§3) Seeds of monocotyledonous or dicotyledonous weed plants were placed in 96-well microtiter plates in quartz sand and grown in a climatized chamber under controlled growth conditions. 5 to 7 days after sowing, the test plants were treated at the cotyledon stage. The compounds according to the invention, formulated in the form of emulsion concentrates (EC), were applied with a water application rate of the equivalent of 2200 liters per hectare. After the test plants had been left to stand in the climatized chamber for 9 to 12 days under optimum growth conditions, the effect of the preparations was scored visually in comparison to untreated controls. For example, 100% activity=the plants have died, 0% activity=like control plants. Tables A1 to A6 below show the effects of selected compounds of the general formula (I) according to Table 1 on various harmful plants and an application rate corresponding to 1900 g/ha, which were obtained by the experimental procedure mentioned above.

Poa annua (POAAN) [14] = assay: Herbicidal early post-emergence action; settings: 1900 g/ha; scored visually 9 to 12 days after treatment vs untreated controls; 100% = plants have died, 0% = like control plants
Description: as §3

[15] = system: Diplotaxis muralis (DIPTE); assay: Herbicidal early post-emergence action; settings: 1900 g/ha; scored visually 9 to 12 days after treatment vs untreated controls; 100% = plants have died, 0% = like control plants
Description: as §3

Setaria viridis (SETVI) [16] = assay: Herbicidal early post-emergence action; settings: 1900 g/ha; scored visually 9 to 12 days after treatment vs untreated controls; 100% = plants have died, 0% = like control plants
Description: as §3

Veronica persica (VERPE) = assay: Herbicidal early post-emergence action; settings: 1900 g/ha; scored visually 9 to 12 days after treatment vs untreated controls; 100% = plants have died, 0% = like control plants
Description: as §3

Lolium perenne (LOLPE) = assay: Herbicidal early post-emergence action; settings: 1900 g/ha; scored visually 9 to 12 days after treatment vs untreated controls; 100% = plants have died, 0% = like control plants
Description: as §3

Row | Compound | Post-emergence action against Abutilon theophrasti (ABUTH) [1] [%] | Post-emergence action against Echinochloa crus-galli (ECHCG) [2] [%] | Post-emergence action against Poa annua (POAAN) (Poa annua (POAAN) [3]) [%] | Post-emergence action against Setaria viridis (SETVI) (Setaria viridis (SETVI) [4]) [%] | Post-emergence action against Stellaria media (STEME) (Stellaria media (STEME) [5]) [%] | Post-emergence action against Amaranthus retroflexus (AMARE) [6] [%] | Pre-emergence action against Matricaria inodora (MATIN) [7] [%] | Pre-emergence action against Abutilon theophrasti (ABUTH) [8] [%] | Pre-emergence action against Echinochloa crus-galli (ECHCG) [9] [%] | Pre-emergence action against Poa annua (POAAN) (Poa annua (POAAN) [10]) [%] | Pre-emergence action against Lolium rigidum (LOLRI) (Lolium rigidum (LOLRI)) [%] | Pre-emergence action against Setaria viridis (SETVI) (Setaria viridis (SETVI) [11]) [%] | Pre-emergence action against Stellaria media (STEME) (Stellaria media (STEME) [12]) [%] | Pre-emergence action against Amaranthus retroflexus (AMARE) [13] [%] | Early post-emergence action against Agrostis tenuis (AGSTE) (Agrostis tenuis (AGSTE)) [%] | Early post-emergence action against Poa annua (POAAN) (Poa annua (POAAN) [14]) [%] | Early post-emergence action against Diplotaxis muralis (DIPTE) [15] [%] | Early post-emergence action against Setaria viridis (SETVI) (Setaria viridis (SETVI) [16]) [%] | Early post-emergence action against Veronica persica (VERPE) (Veronica persica (VERPE)) [%] | Early post-emergence action against Lolium perenne (LOLPE) (Lolium perenne (LOLPE)) [%]
1 | Cc1cc(Oc2ncc(Cl)cn2)c(Sc2ccc(F)cc2)c(C)n1 [Example 1-26, 2,6-Dimethyl-3-(4-fluorophenylthio)-4-(5-chloropyrimidin-2-yloxy)pyridine] | 100 | 100 | 100 | 90 | 100 | 100 | 100 | 100 | 100 | 100 | 100 | 100 | 100 | 100 |  |  |  |  |  | 
2 | Cc1cc(Oc2ncc(Cl)cn2)c(Sc2ccc(F)c(F)c2)c(C)n1 [Example 1-27] | 90 | 100 |  |  | 100 | 100 | 100 | 90 | 100 | 100 | 100 | 100 | 100 | 100 |  |  |  |  |  | 
3 | Cc1cc(Oc2ncc(Cl)cn2)c(Sc2cccc(C(F)(F)F)c2)c(C)n1 [Example 1-28] |  |  | 100 |  | 100 | 90 | 90 |  |  | 90 |  |  | 100 | 90 |  |  |  |  |  | 
4 | Cc1cc(Oc2ncc(Cl)cn2)c(Sc2ccc(C#N)cc2)c(C)n1 [Example 1-30] |  | 100 | 100 |  | 100 |  | 90 | 90 | 100 | 100 | 90 | 90 | 100 | 100 |  |  |  |  |  | 
5 | COC(=O)c1cc(Oc2ncc(Cl)cn2)c(Sc2ccc(F)cc2)c(C(=O)OC)n1 [Example 1-50] |  |  |  |  |  |  |  |  |  |  |  |  |  |  | 80 |  |  |  |  | 
6 | Cc1nccc(Oc2ncc(Cl)cn2)c1Sc1ccc(F)cc1 [Example 1-86] |  |  |  |  |  |  |  |  |  |  |  |  |  |  | 100 | 100 | 80 | 80 | 80 | 80
7 | Cc1nccc(Oc2ncc(F)cn2)c1Oc1ncc(F)cn1 [Example 1-91] |  |  |  |  |  |  | 90 |  |  |  |  |  | 90 | 100 |  |  |  |  |  | 
